Experiments:
[1] = Pharmacokinetic assay in mouse (IV 3 mg/kg, PO 10 mg/kg); format: in vivo; conditions: Male CD1 mouse; for Mouse F: oral bioavailability; for Mouse F / half-life: PO 10 mg/kg; for half-life / Vd: plasma; for half-life: read-out: Mouse t1/2 (converted); for Vd: volume of distribution, read-out: Mouse Vss
Source text: The following are assays that may be used to evaluate the pharmacokinetic properties of Formula (I) in mouse or rat. The assays follow a common procedure recited below.
1. […] For PO (oral gavage), DMSO/PEG400 (10:90). Formulations freshly prepared on the day of dosing or prior to dosing. Storage at room temperature.
2. Test Species: For Mouse: Male CD1 strain, approximately 6-8 weeks in age, approximately 20-30 g. For Rat: Male Sprague-Dawley strain, approximately 6-8 weeks in age, approximately 200-300 g.
3. Dose Level: For IV, 3 mg/kg. For PO, 10 mg/kg.
4. Number of animals: 3 per assay.
5. PK time points: For IV (plasma): 5 min, 15 min, 1, 2, 4, 6, 8, 24 h post dose. For PO (plasma): 15 min, 30 min, 1, 2, 4, 6, 8, 24 h post dose.
6. Blood Sample Collection and Processing. Blood was collected (˜0.2 mL per time point) from jugular vein. Blood of each sample was transferred into plastic micro centrifuge tubes containing anticoagulant of EDTA-K2. Blood samples were centrifuged at 2,000 g for 5 minutes at 4° C. to obtain plasma.
7. Samples Analysis: Plasma samples were analyzed using LC/MS/MS method, and pharmacokinetic parameters (half-life: t1/2; oral bioavailability: F; volume of distribution: Vss).

MCT4 = MCT4 (Homo sapiens (Human), UniProt O15427); assay: Assay 3: MCT4-mediated lactate transport in MDA-MB-231 breast cancer cells; format: cell-based; conditions: MDA-MB-231 cells; lactate transport
Chain of MCT4 (O15427 whole entry, looked up): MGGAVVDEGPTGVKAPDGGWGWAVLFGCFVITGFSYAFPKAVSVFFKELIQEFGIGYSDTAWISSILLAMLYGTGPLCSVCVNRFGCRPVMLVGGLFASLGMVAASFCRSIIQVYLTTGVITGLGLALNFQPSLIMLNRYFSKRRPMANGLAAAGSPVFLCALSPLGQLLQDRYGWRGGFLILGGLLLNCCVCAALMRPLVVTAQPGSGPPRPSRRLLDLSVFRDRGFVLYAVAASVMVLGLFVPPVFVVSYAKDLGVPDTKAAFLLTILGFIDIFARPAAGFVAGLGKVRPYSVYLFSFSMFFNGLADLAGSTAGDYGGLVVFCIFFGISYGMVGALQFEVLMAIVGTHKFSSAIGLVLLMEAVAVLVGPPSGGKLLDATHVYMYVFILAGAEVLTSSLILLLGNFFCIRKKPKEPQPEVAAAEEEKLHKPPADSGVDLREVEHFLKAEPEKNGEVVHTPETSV
Chain of MCT4 (P35613 whole entry partner, looked up): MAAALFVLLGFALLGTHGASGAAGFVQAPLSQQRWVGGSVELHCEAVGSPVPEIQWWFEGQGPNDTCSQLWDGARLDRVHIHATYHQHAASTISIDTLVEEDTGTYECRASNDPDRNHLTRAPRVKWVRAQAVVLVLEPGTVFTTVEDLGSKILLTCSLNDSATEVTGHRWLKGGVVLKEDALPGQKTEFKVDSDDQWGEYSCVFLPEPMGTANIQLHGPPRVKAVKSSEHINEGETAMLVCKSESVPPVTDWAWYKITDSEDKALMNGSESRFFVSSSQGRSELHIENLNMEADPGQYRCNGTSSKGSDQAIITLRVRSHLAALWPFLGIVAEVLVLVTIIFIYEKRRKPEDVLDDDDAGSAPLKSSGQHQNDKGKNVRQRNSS
Method in brief: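 MDA-MB-231 cells loaded with BCECF-AM, 5 min at 37° C, washed and resuspended in Tyrode's Solution, pH 7.4. MCT4 lactate/proton symport followed as the intracellular pH change reported by BCECF fluorescence.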

[2] = Adjuvant-induced arthritis model in rat: Mechanical Allodynia test (MA, Von Frey); format: in vivo; conditions: SD rat, CFA-induced arthritis; PO 3 days post CFA; compared to Dexamethasone
[3] = Adjuvant-induced arthritis model in rat: Difference of Weight Bearing test (DWB); format: in vivo; conditions: SD rat, CFA-induced arthritis; PO 3 days post CFA; compared to Dexamethasone
[4] = Metabolic stability in mouse liver microsomes (in vitro t1/2); format: in vitro ADME; conditions: for half-life at 2 µM: mouse liver microsomes 0.5 mg/mL, 2 μM compound, read-out: Mouse microsome t1/2, min; for Mouse microsome % 60 min: mouse liver microsomes
Method in brief: (§1)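 Liver microsomes (0.5 mg/mL final) incubated with test compound at 2 μM final plus NADPH; samples taken at 0, 15, 30, 45 and 60 min. Parent remaining quantified by LC-MS/MS; k from ln(% remaining) vs time regression, in vitro t1/2 = −0.693/k.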

[5] = Pharmacokinetic assay in rat (IV 3 mg/kg, PO 10 mg/kg); format: in vivo; conditions: Male Sprague-Dawley rat; for Rat F: oral bioavailability; for Rat F / half-life: PO 10 mg/kg; for half-life / Vd: plasma; for half-life: read-out: Rat t1/2 (converted); for Vd: volume of distribution, read-out: Rat Vss
MCT1 = MCT1 (Homo sapiens (Human), UniProt P53985); assay: Assay 4: MCT1-mediated lactate transport in BT20 breast cancer cells; format: cell-based; conditions: Table 27
Chain of MCT1 (P53985 whole entry): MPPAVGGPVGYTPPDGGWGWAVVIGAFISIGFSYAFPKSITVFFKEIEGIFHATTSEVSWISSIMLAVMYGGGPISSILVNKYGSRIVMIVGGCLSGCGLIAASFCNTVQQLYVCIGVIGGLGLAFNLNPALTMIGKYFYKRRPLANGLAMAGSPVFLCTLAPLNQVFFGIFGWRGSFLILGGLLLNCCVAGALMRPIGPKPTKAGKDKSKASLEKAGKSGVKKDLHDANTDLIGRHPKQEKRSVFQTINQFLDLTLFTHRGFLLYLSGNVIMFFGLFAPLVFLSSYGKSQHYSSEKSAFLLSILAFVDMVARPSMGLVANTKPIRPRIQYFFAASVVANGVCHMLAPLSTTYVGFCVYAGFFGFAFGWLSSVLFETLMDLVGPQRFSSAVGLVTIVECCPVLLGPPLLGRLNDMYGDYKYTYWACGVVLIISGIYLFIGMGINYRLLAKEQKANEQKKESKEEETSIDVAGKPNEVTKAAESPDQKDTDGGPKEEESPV
Chain of MCT1 (P35613 140-385 partner): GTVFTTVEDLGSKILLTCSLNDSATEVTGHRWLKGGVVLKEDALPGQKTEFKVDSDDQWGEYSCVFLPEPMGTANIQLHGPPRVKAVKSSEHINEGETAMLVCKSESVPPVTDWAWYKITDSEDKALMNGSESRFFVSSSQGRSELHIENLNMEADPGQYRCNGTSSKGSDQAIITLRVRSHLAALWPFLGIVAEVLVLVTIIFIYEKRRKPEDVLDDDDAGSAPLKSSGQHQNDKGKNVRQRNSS
Method in brief: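 BT20 cells loaded with BCECF-AM (30 mM DMSO stock) for 5 min at 37° C, washed and resuspended in Tyrode's Solution pH 7.4. Lactate uptake tracked via BCECF intracellular pH signal after adding 10 mM L-lactate.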

[6] = Metabolic stability in rat liver microsomes (in vitro t1/2); format: in vitro ADME; conditions: for half-life at 2 µM: rat liver microsomes 0.5 mg/mL, 2 μM compound, read-out: Rat microsome t1/2, min; for Rat microsome % 60 min: rat liver microsomes
Method in brief: as §1

[7] = Metabolic stability in human liver microsomes (in vitro t1/2); format: in vitro ADME; conditions: for Human microsome % 60 min: human liver microsomes; for half-life at 2 µM: read-out: Human microsome t1/2, min
Method in brief: as §1

[8] = human liver microsomes 0.5 mg/mL, 2 μM compound

Row | Mouse F [1] [%] | half-life [1] [h] | Vd [1] [L/kg] | IC50 (MCT4) [nM] | half-life at 2 µM [4] [h] | Mouse microsome % 60 min [4] [%] | Rat F [5] [%] | half-life [5] [h] | Vd [5] [L/kg] | IC50 (MCT1) [nM] | half-life at 2 µM [6] [h] | Rat microsome % 60 min [6] [%] | Human microsome t1/2, min [7, 8] | Human microsome % 60 min [7] [%] | half-life at 2 µM [7, 8] [h] | Structure (SMILES) | Mechanical Allodynia (Von Frey), Minimal Efficacious Dose [2] [mg/kg] | Difference in Weight Bearing, Minimal Efficacious Dose [3] [mg/kg]
1 | 100 | 6.9 | 1.7 | 0.54 | 17.3 | 102 | 29 | 2.8 | 0.68 | 33000 | 4.87 | 86 | ∞ | 105 |  | CCn1ncc2ccc(-c3cc(CO[C@](C)(CC)C(=O)O)nn3Cc3ccccc3Cl)cc21 [Example 220, (2R)-2-([1-[(2-chlorophenyl)methyl]-5-(1-ethyl-1H-indazol-6-yl)-1H-pyrazol-3-yl]methoxy)-2-methylbutanoic acid] | 3 | 3
2 | 100 | 4.2 | 1.9 | 1.9 | 3.27 | 81 | 100 | 2.7 | 1 | 42000 | 1.82 | 69 |  | 64 | 1.72 | CCn1ncc2ccc(-c3cc(COC(C)(C)C(=O)O)nn3-c3ccccc3N3CCCC3)cc21 [Example 229] | 3 | 3
3 | 56 | 3.1 | 0.21 | 2.1 | 1.22 | 59 | 52 | 2.6 | 0.15 | 29000 | 1.17 | 50 |  | 65 | 1.62 | CC(C)(OCc1cc(-c2cccc(OC3CC3)c2)n(-c2ccccc2N2CCC2)n1)C(=O)O [Example 232, 2-([1-[2-(Azetidin-1-yl)phenyl]-5-(3-cyclo-propoxyphenyl)-1H-pyrazol-3-yl]methoxy)-2-methylpropanoic acid] | 1 | 1
